Several values for one entry are separate records, joined by “and”; a condition that tells them apart may be missing. Equal entries are not always repeated. Inconclusive results and toxic doses are left out. Cut-off read from the data, not from the text of the source: active = T/C of 150% or more; inactive = T/C below 125%.
Test system: L1210 leukemia ip in BDF1 mice, survival T/C
Experiment: NCI In Vivo Anticancer Drug Screen. Data for tumor model L1210 Leukemia (intraperitoneal) in B6D2F1 (BDF1) mice
Conditions: endpoint: mean survival time, higher = longer survival
Summary of the method: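 In this screen, tumor-bearing mice given compound are compared to those given vehicle, and their survival values are reported as a treated-to-control quotient.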

[1] = dose: 50.0 mg/kg/injection, schedule: Q01DX009 (ip), vehicle: saline
[2] = dose: 100.0 mg/kg/injection, schedule: Q01DX009 (ip), vehicle: saline
[3] = dose: 200.0 mg/kg/injection, schedule: Q01DX009 (ip), vehicle: saline
[4] = dose: 100.0 mg/kg/injection, schedule: Q04DX003 (ip), vehicle: saline with Tween-80
[5] = dose: 200.0 mg/kg/injection, schedule: Q04DX003 (ip), vehicle: saline with Tween-80
[6] = dose: 400.0 mg/kg/injection, schedule: Q04DX003 (ip), vehicle: saline with Tween-80
[7] = dose: 300.0 mg/kg/injection, schedule: Q04DX003 (ip), vehicle: saline with Tween-80

Measured: T/C

Cc1ccc(OC/C=C/CSc2ccc(C)cc2)cc1
inactive: dose: 100.0 mg/kg/injection, schedule: Q01DX001 (ip), vehicle: Klucel (hydroxypropylcellulose) (HPC) 98 % of control | dose: 100.0 mg/kg/injection, schedule: Q04DX003 (ip), vehicle: Klucel (hydroxypropylcellulose) (HPC) 101 % of control | dose: 200.0 mg/kg/injection, schedule: Q01DX001 (ip), vehicle: Klucel (hydroxypropylcellulose) (HPC) 94 % of control | dose: 200.0 mg/kg/injection, schedule: Q04DX003 (ip), vehicle: Klucel (hydroxypropylcellulose) (HPC) 97 % of control | dose: 400.0 mg/kg/injection, schedule: Q01DX001 (ip), vehicle: Klucel (hydroxypropylcellulose) (HPC) 94 % of control | dose: 400.0 mg/kg/injection, schedule: Q04DX003 (ip), vehicle: Klucel (hydroxypropylcellulose) (HPC) 95 % of control

CNc1ccc(C(=O)O)cc1
inactive: [1] 102 % of control | [2] 109 % of control | [3] 106 % of control

COc1cc(C(=O)NO)cc(OC)c1OC
inactive: [4] 97 % of control and 104 % of control | [5] 97 % of control and 110 % of control | [6] 97 % of control and 100 % of control

CC1(C)C=CN(c2ccc(Cl)cc2)C(=O)O1
inactive: dose: 100.0 mg/kg/injection, schedule: Q04DX002 (ip), vehicle: gum acacia 103 % of control | dose: 200.0 mg/kg/injection, schedule: Q04DX002 (ip), vehicle: gum acacia 97 % of control | dose: 400.0 mg/kg/injection, schedule: Q04DX002 (ip), vehicle: gum acacia 87 % of control

NC(=O)c1cc(C(=O)O)ccc1N(N)O
inactive: [4] 101 % of control | [5] 101 % of control | [6] 90 % of control

CC(C)=CCC/C(C)=C/CN1C(=O)CCCC1=O
inactive: dose: 100.0 mg/kg/injection, schedule: Q01DX001 (ip), vehicle: saline with Tween-80 104 % of control | dose: 150.0 mg/kg/injection, schedule: Q04DX003 (ip), vehicle: saline with Tween-80 94 % of control | dose: 200.0 mg/kg/injection, schedule: Q01DX001 (ip), vehicle: saline with Tween-80 97 % of control | [7] 94 % of control | dose: 400.0 mg/kg/injection, schedule: Q01DX001 (ip), vehicle: saline with Tween-80 93 % of control | dose: 600.0 mg/kg/injection, schedule: Q04DX003 (ip), vehicle: saline with Tween-80 90 % of control

Cc1cc2c(c3oc(C4(C)OC4C4OC4C)cc(=O)c13)C(=O)c1c(O)c(C3CC(C)(N(C)C)C(O)C(C)O3)cc(C3CC(N(C)C)C(O)C(C)O3)c1C2=O (stereo unspecified)
inactive: dose: 0.06 mg/kg/injection, schedule: Q01DX009 (ip), vehicle: other 118 % of control | dose: 0.06 mg/kg/injection, schedule: Q01DX009 (ip), vehicle: saline 114 % of control | dose: 0.12 mg/kg/injection, schedule: Q01DX009 (ip), vehicle: other 95 % of control | dose: 0.12 mg/kg/injection, schedule: Q01DX009 (ip), vehicle: saline 86 % of control | dose: 0.24 mg/kg/injection, schedule: Q01DX009 (ip), vehicle: saline 88 % of control | dose: 1.5 micrograms/kg/injection, schedule: Q01DX015 (ip), vehicle: saline 115 % of control | dose: 3.0 micrograms/kg/injection, schedule: Q01DX015 (ip), vehicle: saline 114 % of control | dose: 4.0 micrograms/kg/injection, schedule: Q01DX001 (ip), vehicle: carboxymethylcellulose (CMC) 110 % of control | dose: 6.0 micrograms/kg/injection, schedule: Q01DX015 (ip), vehicle: saline 117 % of control | dose: 9.0 micrograms/kg/injection, schedule: Q01DX001 (ip), vehicle: carboxymethylcellulose (CMC) 109 % of control | dose: 12.0 micrograms/kg/injection, schedule: Q01DX015 (ip), vehicle: saline 117 % of control | dose: 18.0 micrograms/kg/injection, schedule: Q01DX001 (ip), vehicle: carboxymethylcellulose (CMC) 112 % of control | dose: 25.0 micrograms/kg/injection, schedule: Q01DX Z (ip), vehicle: carboxymethylcellulose (CMC) 107 % of control | dose: 37.0 micrograms/kg/injection, schedule: Q01DX001 (ip), vehicle: carboxymethylcellulose (CMC) 112 % of control | dose: 50.0 micrograms/kg/injection, schedule: Q01DX Z (ip), vehicle: carboxymethylcellulose (CMC) 98 % of control | dose: 75.0 micrograms/kg/injection, schedule: Q01DX001 (ip), vehicle: carboxymethylcellulose (CMC) 121 % of control | dose: 96.0 micrograms/kg/injection, schedule: Q01DX015 (ip), vehicle: saline 108 % of control

COc1cc2c(cc1OC)-c1cc3cc(OC)c(OC)cc3c(CCC(=O)O)[n+]1CC2 (tested in a mixture with another compound)
inactive: dose: 100.0 mg/kg/injection, schedule: Q04DX002 (ip), vehicle: saline 117 % of control | dose: 200.0 mg/kg/injection, schedule: Q04DX002 (ip), vehicle: saline 103 % of control | dose: 400.0 mg/kg/injection, schedule: Q04DX002 (ip), vehicle: saline 109 % of control

COP(=NC(C)=O)(OC)OC
inactive: dose: 100.0 mg/kg/injection, schedule: Q01DX009 (ip), vehicle: saline with Tween-80 101 % of control | [4] 97 % of control | dose: 200.0 mg/kg/injection, schedule: Q01DX009 (ip), vehicle: saline with Tween-80 101 % of control | [5] 104 % of control | dose: 400.0 mg/kg/injection, schedule: Q01DX009 (ip), vehicle: saline with Tween-80 102 % of control | [6] 106 % of control

COc1ccc(C(Nc2ccc([N+](=O)[O-])cc2)P(=O)(c2ccccc2)c2ccccc2)cc1 (stereo unspecified)
inactive: [2] 102 % of control | [3] 95 % of control | dose: 400.0 mg/kg/injection, schedule: Q01DX009 (ip), vehicle: saline 106 % of control

NC(N)=Nc1nc2ccccc2s1
inactive: dose: 12.5 mg/kg/injection, schedule: Q01DX009 (ip), vehicle: saline 94 % of control | dose: 25.0 mg/kg/injection, schedule: Q01DX009 (ip), vehicle: saline 100 % of control | dose: 25.0 mg/kg/injection, schedule: Q04DX003 (ip), vehicle: Klucel (hydroxypropylcellulose) (HPC) 103 % of control | [1] 96 % of control | dose: 50.0 mg/kg/injection, schedule: Q04DX003 (ip), vehicle: Klucel (hydroxypropylcellulose) (HPC) 100 % of control

O=[N+]([O-])c1ccccc1CSc1ncnc2nc[nH]c12
inactive: dose: 132.0 mg/kg/injection, schedule: Q04DX003 (ip), vehicle: saline with Tween-80 102 % of control | [5] 100 % of control | [7] 105 % of control

CC(C)(C)NCCC(=O)c1ccccc1
inactive: dose: 12.5 mg/kg/injection, schedule: Q04DX003 (ip), vehicle: saline 98 % of control | dose: 25.0 mg/kg/injection, schedule: Q04DX003 (ip), vehicle: saline 102 % of control | dose: 50.0 mg/kg/injection, schedule: Q04DX003 (ip), vehicle: saline 101 % of control

CC1CC2C3CC(F)C4=CC(=O)C=CC4(C)C3(F)C(O)CC2(C)C1(O)C(=O)COC(=O)C(C)(C)C (stereo unspecified)
inactive: dose: 100.0 mg/kg/injection, schedule: Q01DX001 (ip), vehicle: steriod suspending solution 106 % of control | dose: 200.0 mg/kg/injection, schedule: Q01DX001 (ip), vehicle: steriod suspending solution 95 % of control | dose: 400.0 mg/kg/injection, schedule: Q01DX001 (ip), vehicle: steriod suspending solution 95 % of control

Nc1ccc(-c2ccc(Br)cc2)cc1
inactive: dose: 75.0 mg/kg/injection, schedule: Q01DX001 (ip), vehicle: carboxymethylcellulose (CMC) 101 % of control | dose: 150.0 mg/kg/injection, schedule: Q01DX001 (ip), vehicle: carboxymethylcellulose (CMC) 100 % of control

Nc1ccc(SCCC(=O)O)cc1
inactive: dose: 75.0 mg/kg/injection, schedule: Q01DX001 (ip), vehicle: other 96 % of control and 97 % of control | dose: 150.0 mg/kg/injection, schedule: Q01DX001 (ip), vehicle: other 105 % of control

O=C1c2ccccc2C[CH]1[Hg][Cl] (stereo unspecified)
inactive: dose: 5.0 mg/kg/injection, schedule: Q01DX001 (ip), vehicle: saline 103 % of control | dose: 10.0 mg/kg/injection, schedule: Q01DX001 (ip), vehicle: saline 102 % of control

CC(C)(C)NC(=O)C1C2CC3OC(=O)C1C3C2 (stereo unspecified)
inactive: [4] 98 % of control | [5] 101 % of control and 90 % of control | [6] 101 % of control and 98 % of control

— PubChem BioAssay AID248 (DTP/NCI, 2004)
